According to ChEMBL document CHEMBL2413072, “Synthesis and in vitro anticancer studies of novel C-2 arylidene congeners of lantadenes” (2013):

Experiments:
Assay type in all cases: functional
K562 [1] = test: Growth inhibition of human K562 cells assessed as cell growth at 10 uM by sulforhodamine B assay; details: read-out: Activity
MDA-MB-468 = test: Growth inhibition of human MDA-MB-468 cells assessed as growth inhibition at 10 uM by sulforhodamine B assay; details: read-out: GI
BT-549 [2] = test: Growth inhibition of human BT549 cells assessed as growth inhibition at 10 uM by sulforhodamine B assay; details: read-out: GI
DU-145 = test: Growth inhibition of human DU145 cells assessed as growth inhibition at 10 uM by sulforhodamine B assay; details: read-out: GI
UO-31 [3] = test: Growth inhibition of human UO31 cells assessed as growth inhibition at 10 uM by sulforhodamine B assay; details: read-out: GI
SN12C [4] = test: Growth inhibition of human SN12C cells assessed as growth inhibition at 10 uM by sulforhodamine B assay; details: read-out: GI
RXF 393 = test: Growth inhibition of human RXF393 cells assessed as growth inhibition at 10 uM by sulforhodamine B assay; details: read-out: GI
CAKI-1 [5] = test: Growth inhibition of human CAKI-1 cells assessed as growth inhibition at 10 uM by sulforhodamine B assay; details: read-out: GI
A498 = test: Growth inhibition of human A498 cells assessed as growth inhibition at 10 uM by sulforhodamine B assay; details: read-out: GI
CCRF-CEM = test: Growth inhibition of human CCRF-CEM cells assessed as cell growth at 10 uM by sulforhodamine B assay; details: read-out: Activity
OVCAR-3 = test: Growth inhibition of human OVCAR3 cells assessed as growth inhibition at 10 uM by sulforhodamine B assay; details: read-out: GI
UACC-62 = test: Growth inhibition of human UACC62 cells assessed as growth inhibition at 10 uM by sulforhodamine B assay; details: read-out: GI
SK-MEL-5 = test: Growth inhibition of human SK-MEL-5 cells assessed as growth inhibition at 10 uM by sulforhodamine B assay; details: read-out: GI
MDA-MB-435 = test: Growth inhibition of human MDA-MB-435 cells assessed as growth inhibition at 10 uM by sulforhodamine B assay; details: read-out: GI
M14 [6] = test: Growth inhibition of human M14 cells assessed as growth inhibition at 10 uM by sulforhodamine B assay; details: read-out: GI
Malme-3M [7] = test: Growth inhibition of human MALME-3M cells assessed as growth inhibition at 10 uM by sulforhodamine B assay; details: read-out: GI
U-251 = test: Growth inhibition of human U251 cells assessed as growth inhibition at 10 uM by sulforhodamine B assay; details: read-out: GI
SNB-19 = test: Growth inhibition of human SNB19 cells assessed as growth inhibition at 10 uM by sulforhodamine B assay; details: read-out: GI
SF-539 [8] = test: Growth inhibition of human SF539 cells assessed as growth inhibition at 10 uM by sulforhodamine B assay; details: read-out: GI
SF-268 [9] = test: Growth inhibition of human SF268 cells assessed as growth inhibition at 10 uM by sulforhodamine B assay; details: read-out: GI
KM12 [10] = test: Growth inhibition of human KM12 cells assessed as growth inhibition at 10 uM by sulforhodamine B assay; details: read-out: GI
HCT-15 = test: Growth inhibition of human HCT15 cells assessed as growth inhibition at 10 uM by sulforhodamine B assay; details: read-out: GI
NCI-H460 [11] = test: Growth inhibition of human NCI-H460 cells assessed as growth inhibition at 10 uM by sulforhodamine B assay; details: read-out: GI
NCI-H322M = test: Growth inhibition of human NCI-H322M cells assessed as growth inhibition at 10 uM by sulforhodamine B assay; details: read-out: GI
RPMI-8226 [12] = test: Growth inhibition of human RPMI8226 cells assessed as growth inhibition at 10 uM by sulforhodamine B assay; details: read-out: GI
K562 [13] = test: Growth inhibition of human K562 cells assessed as growth inhibition at 10 uM by sulforhodamine B assay; details: read-out: GI
HL-60(TB) = test: Growth inhibition of human HL-60(TB) cells assessed as growth inhibition at 10 uM by sulforhodamine B assay; details: read-out: GI
BT-549 [14] = test: Growth inhibition of human BT549 cells assessed as cell growth at 10 uM by sulforhodamine B assay; details: read-out: Activity
[15] = Growth inhibition of human Hs 578T cells assessed as cell growth at 10 uM by sulforhodamine B assay; details: read-out: Activity
MCF7 = test: Growth inhibition of human MCF7 cells assessed as cell growth at 10 uM by sulforhodamine B assay; details: read-out: Activity
PC-3 = test: Growth inhibition of human PC3 cells assessed as cell growth at 10 uM by sulforhodamine B assay; details: read-out: Activity
UO-31 [16] = test: Growth inhibition of human UO31 cells assessed as cell growth at 10 uM by sulforhodamine B assay; details: read-out: Activity
SN12C [17] = test: Growth inhibition of human SN12C cells assessed as cell growth at 10 uM by sulforhodamine B assay; details: read-out: Activity
CAKI-1 [18] = test: Growth inhibition of human CAKI-1 cells assessed as cell growth at 10 uM by sulforhodamine B assay; details: read-out: Activity
OVCAR-5 = test: Growth inhibition of human OVCAR5 cells assessed as cell growth at 10 uM by sulforhodamine B assay; details: read-out: Activity
OVCAR-4 = test: Growth inhibition of human OVCAR4 cells assessed as cell growth at 10 uM by sulforhodamine B assay; details: read-out: Activity
UACC-257 = test: Growth inhibition of human UACC257 cells assessed as cell growth at 10 uM by sulforhodamine B assay; details: read-out: Activity
SK-MEL-2 = test: Growth inhibition of human SK-MEL-2 cells assessed as cell growth at 10 uM by sulforhodamine B assay; details: read-out: Activity
M14 [19] = test: Growth inhibition of human M14 cells assessed as cell growth at 10 uM by sulforhodamine B assay; details: read-out: Activity
Malme-3M [20] = test: Growth inhibition of human MALME-3M cells assessed as cell growth at 10 uM by sulforhodamine B assay; details: read-out: Activity
SF-539 [21] = test: Growth inhibition of human SF539 cells assessed as cell growth at 10 uM by sulforhodamine B assay; details: read-out: Activity
SF-295 = test: Growth inhibition of human SF295 cells assessed as cell growth at 10 uM by sulforhodamine B assay; details: read-out: Activity
SF-268 [22] = test: Growth inhibition of human SF268 cells assessed as cell growth at 10 uM by sulforhodamine B assay; details: read-out: Activity
SW-620 = test: Growth inhibition of human SW620 cells assessed as cell growth at 10 uM by sulforhodamine B assay; details: read-out: Activity
KM12 [23] = test: Growth inhibition of human KM12 cells assessed as cell growth at 10 uM by sulforhodamine B assay; details: read-out: Activity
HCT-116 = test: Growth inhibition of human HCT116 cells assessed as cell growth at 10 uM by sulforhodamine B assay; details: read-out: Activity
[24] = Growth inhibition of human HCC2998 cells assessed as cell growth at 10 uM by sulforhodamine B assay; details: HCC 2998, read-out: Activity
NCI-H460 [25] = test: Growth inhibition of human NCI-H460 cells assessed as cell growth at 10 uM by sulforhodamine B assay; details: read-out: Activity
RPMI-8226 [26] = test: Growth inhibition of human RPMI8226 cells assessed as cell growth at 10 uM by sulforhodamine B assay; details: read-out: Activity

SMILES: CC1(C)C[C@@H](O)[C@]2(C(=O)O)CC[C@]3(C)C(=CC[C@@H]4[C@@]5(C)CCC(=O)C(C)(C)[C@@H]5CC[C@]43C)[C@@H]2C1
- growth at 10 µM (K562 [1]): 76.8%
- inhibition of growth at 10 µM (MDA-MB-468): < 10%
- inhibition of growth at 10 µM (BT-549 [2]): 10.1%
- inhibition of growth at 10 µM (DU-145): < 10%
- inhibition of growth at 10 µM (UO-31 [3]): 13.9%
- inhibition of growth at 10 µM (SN12C [4]): 16.6%
- inhibition of growth at 10 µM (RXF 393): < 10%
- inhibition of growth at 10 µM (CAKI-1 [5]): 15.2%
- inhibition of growth at 10 µM (A498): < 10%
- growth at 10 µM (CCRF-CEM): 87.5%
- inhibition of growth at 10 µM (OVCAR-3): < 10%
- inhibition of growth at 10 µM (UACC-62): 19.5%
- inhibition of growth at 10 µM (SK-MEL-5): 12.2%
- inhibition of growth at 10 µM (MDA-MB-435): < 10%
- inhibition of growth at 10 µM (M14 [6]): < 10%
- inhibition of growth at 10 µM (Malme-3M [7]): 12.9%
- inhibition of growth at 10 µM (U-251): 10.8%
- inhibition of growth at 10 µM (SNB-19): < 10%
- inhibition of growth at 10 µM (SF-539 [8]): < 10%
- inhibition of growth at 10 µM (SF-268 [9]): < 10%
- inhibition of growth at 10 µM (KM12 [10]): 12.3%
- inhibition of growth at 10 µM (HCT-15): 24.6%
- inhibition of growth at 10 µM (NCI-H460 [11]): < 10%
- inhibition of growth at 10 µM (NCI-H322M): < 10%
- inhibition of growth at 10 µM (RPMI-8226 [12]): 29.8%
- inhibition of growth at 10 µM (K562 [13]): 23.2%
- inhibition of growth at 10 µM (HL-60(TB)): 24.8%
- growth at 10 µM (BT-549 [14]): 89.9%
- growth at 10 µM [15]: 99.3%
- growth at 10 µM (MCF7): 81.4%
- growth at 10 µM (PC-3): 59.3%
- growth at 10 µM (UO-31 [16]): 86.1%
- growth at 10 µM (SN12C [17]): 83.3%
- growth at 10 µM (CAKI-1 [18]): 84.8%
- growth at 10 µM (OVCAR-5): 108%
- growth at 10 µM (OVCAR-4): 85.9%
- growth at 10 µM (UACC-257): 91.2%
- growth at 10 µM (SK-MEL-2): 96%
- growth at 10 µM (M14 [19]): 93.4%
- growth at 10 µM (Malme-3M [20]): 87.1%
- growth at 10 µM (SF-539 [21]): 106%
- growth at 10 µM (SF-295): 80.7%
- growth at 10 µM (SF-268 [22]): 106%
- growth at 10 µM (SW-620): 104%
- growth at 10 µM (KM12 [23]): 87.7%
- growth at 10 µM (HCT-116): 78.8%
- growth at 10 µM [24]: 91%
- growth at 10 µM (NCI-H460 [25]): 94.7%
- growth at 10 µM (RPMI-8226 [26]): 70.2%

SMILES: CC1(C)C[C@@H](O)[C@]2(C(=O)O)CC[C@]3(C)C(=CC[C@@H]4[C@@]5(C)C/C(=C\C=C\c6ccccc6)C(=O)C(C)(C)[C@@H]5CC[C@]43C)[C@@H]2C1
- growth at 10 µM (K562 [1]): 32.4%
- inhibition of growth at 10 µM (MDA-MB-468): 27.4%
- inhibition of growth at 10 µM (BT-549 [2]): 30%
- inhibition of growth at 10 µM (DU-145): 28.8%
- inhibition of growth at 10 µM (UO-31 [3]): 59.7%
- inhibition of growth at 10 µM (SN12C [4]): 54.5%
- inhibition of growth at 10 µM (RXF 393): 15.9%
- inhibition of growth at 10 µM (CAKI-1 [5]): 57%
- inhibition of growth at 10 µM (A498): < 10%
- growth at 10 µM (CCRF-CEM): 19.9%
- inhibition of growth at 10 µM (OVCAR-3): 42.7%
- inhibition of growth at 10 µM (UACC-62): 49.6%
- inhibition of growth at 10 µM (SK-MEL-5): 26.3%
- inhibition of growth at 10 µM (MDA-MB-435): 27.7%
- inhibition of growth at 10 µM (M14 [6]): 27.1%
- inhibition of growth at 10 µM (Malme-3M [7]): 15.5%
- inhibition of growth at 10 µM (U-251): 66.4%
- inhibition of growth at 10 µM (SNB-19): 26.6%
- inhibition of growth at 10 µM (SF-539 [8]): < 10%
- inhibition of growth at 10 µM (SF-268 [9]): 29.3%
- inhibition of growth at 10 µM (KM12 [10]): 68.2%
- inhibition of growth at 10 µM (HCT-15): 64.8%
- inhibition of growth at 10 µM (NCI-H460 [11]): 54.2%
- inhibition of growth at 10 µM (NCI-H322M): 28.1%
- inhibition of growth at 10 µM (RPMI-8226 [12]): 84.4%
- inhibition of growth at 10 µM (K562 [13]): 67.6%
- inhibition of growth at 10 µM (HL-60(TB)): 61.2%
- growth at 10 µM (BT-549 [14]): 70%
- growth at 10 µM [15]: 58.4%
- growth at 10 µM (MCF7): 33.8%
- growth at 10 µM (PC-3): 41.5%
- growth at 10 µM (UO-31 [16]): 40.3%
- growth at 10 µM (SN12C [17]): 45.5%
- growth at 10 µM (CAKI-1 [18]): 43%
- growth at 10 µM (OVCAR-5): 104%
- growth at 10 µM (OVCAR-4): 54.2%
- growth at 10 µM (UACC-257): 62%
- growth at 10 µM (SK-MEL-2): 64.6%
- growth at 10 µM (M14 [19]): 72.9%
- growth at 10 µM (Malme-3M [20]): 84.5%
- growth at 10 µM (SF-539 [21]): 91.9%
- growth at 10 µM (SF-295): 23.5%
- growth at 10 µM (SF-268 [22]): 70.7%
- growth at 10 µM (SW-620): 55.8%
- growth at 10 µM (KM12 [23]): 31.8%
- growth at 10 µM (HCT-116): 17.5%
- growth at 10 µM [24]: 82.8%
- growth at 10 µM (NCI-H460 [25]): 45.8%
- growth at 10 µM (RPMI-8226 [26]): 15.6%
